Active and inactive are the calls of the source.
How the values were obtained:
[1] = target: Sphingosine 1-phosphate receptor 5 (Homo sapiens, UniProt Q9H228); experiment: Late stage counterscreen assay for S1P4 antagonists: Fluorescence dose response cell-based screening assay for antagonists of the Sphingosine 1-Phosphate Receptor 5 (S1P5). [Related pubchem assays (depositor defined):AID1510, AID1524, AID1692, AID1853, AID2332, AID489009, AID489017]; format: functional
[2] = target: Sphingosine 1-phosphate receptor 1 (Homo sapiens, UniProt P21453); experiment: Late stage counterscreen assay for S1P4 antagonists: Fluorescence dose response cell-based screening assay for antagonists of the Sphingosine 1-Phosphate Receptor 1 (S1P1). [Related pubchem assays (depositor defined):AID1510, AID1524, AID1692, AID1853, AID2332, AID489009, AID489017]; format: functional
[3] = target: Sphingosine 1-phosphate receptor 3 (Homo sapiens, UniProt Q99500); experiment: Late stage counterscreen assay for S1P4 antagonists: Fluorescence dose response cell-based screening assay for antagonists of the Sphingosine 1-Phosphate Receptor 3 (S1P3). [Related pubchem assays (depositor defined):AID1510, AID1524, AID1692, AID1853, AID2332, AID489009, AID489017]; format: functional
[4] = target: T1, Sphingosine 1-phosphate receptor 4 (Homo sapiens, UniProt O95977); experiment: potency of S1P4 blockers – cell-based, fluorescence, synthesized analogues, late-stage follow-up (AID 2346); format: functional
T1 sequence (O95977 whole entry): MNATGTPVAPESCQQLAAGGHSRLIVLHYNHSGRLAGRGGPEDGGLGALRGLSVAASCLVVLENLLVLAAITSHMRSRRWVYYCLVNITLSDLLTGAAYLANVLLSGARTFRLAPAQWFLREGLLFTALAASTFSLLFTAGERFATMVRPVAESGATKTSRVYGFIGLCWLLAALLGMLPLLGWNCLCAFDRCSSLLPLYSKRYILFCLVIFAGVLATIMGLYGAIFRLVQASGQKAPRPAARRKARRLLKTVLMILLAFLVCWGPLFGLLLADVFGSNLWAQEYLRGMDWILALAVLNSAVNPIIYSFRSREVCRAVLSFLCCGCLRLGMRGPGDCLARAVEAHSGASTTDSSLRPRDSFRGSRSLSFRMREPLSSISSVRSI

[5] = target: Sphingosine 1-phosphate receptor 2 (Homo sapiens, UniProt O95136); experiment: Late stage counterscreen assay for S1P4 antagonists: Fluorescence dose response cell-based screening assay for antagonists of the Sphingosine 1-Phosphate Receptor 2 (S1P2). [Related pubchem assays (depositor defined):AID1510, AID1524, AID1692, AID1853, AID2332, AID489009, AID489017]; format: functional
Coagulation factor XII = target: T2, Coagulation factor XII (Homo sapiens, UniProt P00748); format: functional;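 also: activated factor XIIa alpha cleaving a fluorogenic AMC peptide substrate; inhibitor potency from loss of enzyme activity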
T2 sequence (P00748 whole entry): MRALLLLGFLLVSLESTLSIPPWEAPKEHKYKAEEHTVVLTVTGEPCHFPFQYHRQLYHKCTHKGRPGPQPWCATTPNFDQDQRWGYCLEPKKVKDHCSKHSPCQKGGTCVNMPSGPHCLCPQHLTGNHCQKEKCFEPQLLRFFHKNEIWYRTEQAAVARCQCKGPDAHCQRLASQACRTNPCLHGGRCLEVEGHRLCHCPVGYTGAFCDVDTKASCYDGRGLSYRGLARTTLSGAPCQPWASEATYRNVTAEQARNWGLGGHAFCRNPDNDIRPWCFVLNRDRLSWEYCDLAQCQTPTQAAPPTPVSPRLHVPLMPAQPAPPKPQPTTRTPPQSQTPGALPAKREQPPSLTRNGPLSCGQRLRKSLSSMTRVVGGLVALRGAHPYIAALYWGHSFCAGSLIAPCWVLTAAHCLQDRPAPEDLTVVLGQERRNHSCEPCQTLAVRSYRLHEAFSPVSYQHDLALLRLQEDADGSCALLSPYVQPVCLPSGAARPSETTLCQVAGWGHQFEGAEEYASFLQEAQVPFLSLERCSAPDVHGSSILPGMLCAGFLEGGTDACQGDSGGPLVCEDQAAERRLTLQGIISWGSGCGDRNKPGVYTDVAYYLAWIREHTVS

[6] = tested on: Streptococcus sp. 'group A'; experiment: Streptococcus pyogenes SK(-)GAS viability under kanamycin – luminescence, BacTiterGlo, confirmation, counter-screen for streptokinase expression inhibitor project, dose response (AID 1900); format: functional, organism-based
[7] = target: Intestinal-type alkaline phosphatase (Homo sapiens, UniProt P09923); experiment: inhibition of human intestinal alkaline phosphatase – biochemical, dose response (AID 488876); format: functional
[8] = target: Intestinal-type alkaline phosphatase (Mus musculus, UniProt P24822); experiment: PubChem AID 488785; format: functional
Streptococcus = experiment: GAS UMAA2166 growth inhibition – luminescence, BacTiterGlo, counter-screen for streptokinase expression inhibitor project, dose response (AID 1915); format: functional, organism-based;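 also: potency for reduction of bacterial viability or growth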
[9] = target: T3, Alkaline phosphatase, tissue-nonspecific isozyme (Homo sapiens, UniProt P05186); experiment: TNAP enzyme inhibition by screening hits, dose response, selectivity assay for mouse IAP inhibitor project, biochemical, human TNAP, uHTS hits (AID 488906); format: functional
T3 sequence (P05186 whole entry): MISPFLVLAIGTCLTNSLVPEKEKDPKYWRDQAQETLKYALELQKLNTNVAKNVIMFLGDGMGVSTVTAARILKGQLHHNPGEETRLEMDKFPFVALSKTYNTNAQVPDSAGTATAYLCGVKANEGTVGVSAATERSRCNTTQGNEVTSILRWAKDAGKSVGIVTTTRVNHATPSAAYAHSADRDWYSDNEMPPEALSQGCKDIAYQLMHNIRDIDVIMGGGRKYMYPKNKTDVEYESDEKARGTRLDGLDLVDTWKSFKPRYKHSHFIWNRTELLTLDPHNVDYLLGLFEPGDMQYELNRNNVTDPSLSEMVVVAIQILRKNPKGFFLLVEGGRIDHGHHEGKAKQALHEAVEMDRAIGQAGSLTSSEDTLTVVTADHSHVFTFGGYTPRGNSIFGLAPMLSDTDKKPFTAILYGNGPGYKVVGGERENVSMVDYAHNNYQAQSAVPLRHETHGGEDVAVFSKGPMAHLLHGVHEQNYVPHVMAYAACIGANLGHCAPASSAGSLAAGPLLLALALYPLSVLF

Streptokinase A = target: T4, Streptokinase A (Streptococcus pyogenes serotype M1, UniProt P10520); experiment: viability-normalized secreted streptokinase activity reduction – plasminogen activation absorbance, OD405, dose response (AID 1914); format: functional, Streptococcus pyogenes M1 GAS;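 also: secreted streptokinase activity via plasminogen activation per viability signal from cell pellet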
T4 sequence (P10520 whole entry): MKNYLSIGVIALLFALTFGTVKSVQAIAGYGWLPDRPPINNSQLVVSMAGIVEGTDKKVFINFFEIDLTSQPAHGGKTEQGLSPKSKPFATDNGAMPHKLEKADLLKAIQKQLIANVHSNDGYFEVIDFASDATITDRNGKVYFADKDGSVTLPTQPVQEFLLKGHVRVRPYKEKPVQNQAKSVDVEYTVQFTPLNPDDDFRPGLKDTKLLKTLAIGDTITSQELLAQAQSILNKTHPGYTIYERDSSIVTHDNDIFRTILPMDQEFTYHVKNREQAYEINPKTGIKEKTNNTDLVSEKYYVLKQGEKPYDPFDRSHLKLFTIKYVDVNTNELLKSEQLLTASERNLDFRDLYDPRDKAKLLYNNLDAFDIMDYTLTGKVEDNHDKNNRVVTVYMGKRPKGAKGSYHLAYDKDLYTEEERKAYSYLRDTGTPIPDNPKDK

Hexokinase-1 = Hexokinase-1 (Homo sapiens, UniProt P19367); experiment: HK1 enzyme activation by HKDC1 hits – biochemical, selectivity assay for HKDC1 activator project, dose response (AID 504762); format: functional
[10] = Fluorescence-based cell-based high throughput dose response assay for inhibitors of the interaction of nucleotide-binding oligomerization domain containing 2 (NOD2) and the receptor-interacting serine-threonine kinase 2 (RIPK2).; format: functional; conditions: Homo sapiens
[11] = target: Scavenger receptor class B member 1 (Mus musculus, UniProt Q61009); experiment: mouse SR-BI DiI-HDL uptake blockers – ldlA[mSR-BI] cells, fluorescence, cherry pick, dose response (AID 493194); format: functional, cell-based;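 also: cellular uptake of fluorescent DiI-labeled HDL measured as cell fluorescence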
[12] = target: T5, Histone-lysine N-methyltransferase NSD2 (Homo sapiens, UniProt O96028); format: biochemical
T5 sequence (O96028 whole entry): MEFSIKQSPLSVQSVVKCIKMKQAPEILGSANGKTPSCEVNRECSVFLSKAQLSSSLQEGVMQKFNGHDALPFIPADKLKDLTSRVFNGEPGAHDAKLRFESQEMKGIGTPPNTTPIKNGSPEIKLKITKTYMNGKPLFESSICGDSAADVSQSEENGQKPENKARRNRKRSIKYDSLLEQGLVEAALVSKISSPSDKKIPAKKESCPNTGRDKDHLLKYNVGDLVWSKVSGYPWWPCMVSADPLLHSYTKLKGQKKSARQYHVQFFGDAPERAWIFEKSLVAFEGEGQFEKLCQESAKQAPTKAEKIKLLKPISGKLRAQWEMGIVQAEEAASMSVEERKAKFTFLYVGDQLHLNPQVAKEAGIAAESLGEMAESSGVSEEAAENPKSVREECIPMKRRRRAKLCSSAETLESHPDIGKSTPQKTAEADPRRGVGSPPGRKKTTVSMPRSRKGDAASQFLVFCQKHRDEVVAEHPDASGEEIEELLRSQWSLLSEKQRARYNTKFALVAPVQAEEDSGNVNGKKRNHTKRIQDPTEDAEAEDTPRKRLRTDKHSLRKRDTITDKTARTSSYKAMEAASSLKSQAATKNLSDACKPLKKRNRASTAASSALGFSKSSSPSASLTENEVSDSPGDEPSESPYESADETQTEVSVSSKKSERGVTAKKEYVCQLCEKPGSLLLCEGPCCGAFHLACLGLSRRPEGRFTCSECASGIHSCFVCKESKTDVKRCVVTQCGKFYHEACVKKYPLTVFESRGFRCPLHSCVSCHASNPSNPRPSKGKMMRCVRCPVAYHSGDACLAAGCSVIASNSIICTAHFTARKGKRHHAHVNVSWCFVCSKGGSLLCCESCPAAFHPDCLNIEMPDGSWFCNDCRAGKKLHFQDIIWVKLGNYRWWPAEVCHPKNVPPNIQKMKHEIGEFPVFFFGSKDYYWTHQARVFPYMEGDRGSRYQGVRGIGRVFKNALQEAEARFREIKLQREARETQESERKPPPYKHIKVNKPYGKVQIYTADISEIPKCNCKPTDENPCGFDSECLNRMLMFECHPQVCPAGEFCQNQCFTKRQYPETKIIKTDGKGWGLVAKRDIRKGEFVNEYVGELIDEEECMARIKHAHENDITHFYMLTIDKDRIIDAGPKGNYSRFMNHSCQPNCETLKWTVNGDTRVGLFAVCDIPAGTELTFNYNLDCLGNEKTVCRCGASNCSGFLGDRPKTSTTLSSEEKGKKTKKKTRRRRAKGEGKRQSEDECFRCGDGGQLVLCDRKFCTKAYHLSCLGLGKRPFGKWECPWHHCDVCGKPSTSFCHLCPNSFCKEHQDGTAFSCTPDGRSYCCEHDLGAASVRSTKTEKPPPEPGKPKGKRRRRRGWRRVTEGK

Hexokinase HKDC1 = Hexokinase HKDC1 (Homo sapiens, UniProt Q2TB90); experiment: activation of HKDC1 glucose phosphorylation – biochemical, W721R variant, dose response (AID 504730); format: functional
[13] = target: Nucleotide-binding oligomerization domain-containing protein 1 (Homo sapiens, UniProt Q9Y239); experiment: blockers of NOD1 pathway activity – revised, SAR follow-up (AID 2333); format: functional
[14] = target: Nucleotide-binding oligomerization domain-containing protein 2 (Homo sapiens, UniProt Q9HC29); experiment: PubChem AID 2334; format: functional
Tumor necrosis factor = Tumor necrosis factor (Homo sapiens, UniProt P01375); experiment: analog potency on TNFa NF-kB signaling – cell-based, revised, SAR follow-up (AID 2337); format: functional
HEK293 = experiment: cells; conditions: Homo sapiens;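 also: cells exposed to compound for 14 hours overnight before viability readout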
[15] = target: Potassium voltage-gated channel subfamily KQT member 2 (Rattus norvegicus, UniProt O88943); experiment: rat KCNQ2 current potentiators – automated patch clamp, KCNQ2-CHO cells, SAR follow-up (AID 493113); format: functional

Chain of Hexokinase HKDC1 (Q2TB90 whole entry, the tested form may be a part): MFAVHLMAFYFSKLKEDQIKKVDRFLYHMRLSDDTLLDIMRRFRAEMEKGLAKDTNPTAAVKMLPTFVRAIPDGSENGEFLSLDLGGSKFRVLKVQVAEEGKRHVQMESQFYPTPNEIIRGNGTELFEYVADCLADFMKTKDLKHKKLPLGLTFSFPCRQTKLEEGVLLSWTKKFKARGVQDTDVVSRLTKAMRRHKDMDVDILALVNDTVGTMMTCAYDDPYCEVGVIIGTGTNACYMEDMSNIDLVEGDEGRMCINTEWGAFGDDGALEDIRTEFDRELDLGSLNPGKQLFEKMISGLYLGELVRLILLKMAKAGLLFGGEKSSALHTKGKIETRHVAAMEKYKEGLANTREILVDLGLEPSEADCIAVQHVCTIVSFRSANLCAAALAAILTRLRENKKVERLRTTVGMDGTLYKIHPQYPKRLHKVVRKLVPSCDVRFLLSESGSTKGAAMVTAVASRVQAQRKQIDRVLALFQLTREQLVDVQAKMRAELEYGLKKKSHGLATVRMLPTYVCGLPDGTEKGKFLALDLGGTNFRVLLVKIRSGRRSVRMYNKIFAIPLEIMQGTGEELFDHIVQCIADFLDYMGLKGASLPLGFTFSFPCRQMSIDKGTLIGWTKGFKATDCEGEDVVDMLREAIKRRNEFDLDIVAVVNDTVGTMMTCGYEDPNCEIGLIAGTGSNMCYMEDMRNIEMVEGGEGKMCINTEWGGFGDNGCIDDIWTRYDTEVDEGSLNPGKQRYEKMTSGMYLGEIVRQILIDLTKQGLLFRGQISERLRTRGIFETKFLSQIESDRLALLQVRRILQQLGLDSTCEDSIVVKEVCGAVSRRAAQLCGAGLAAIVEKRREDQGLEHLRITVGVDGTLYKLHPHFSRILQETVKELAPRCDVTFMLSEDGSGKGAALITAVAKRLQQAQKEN
Chain of Sphingosine 1-phosphate receptor 3 (Q99500 whole entry): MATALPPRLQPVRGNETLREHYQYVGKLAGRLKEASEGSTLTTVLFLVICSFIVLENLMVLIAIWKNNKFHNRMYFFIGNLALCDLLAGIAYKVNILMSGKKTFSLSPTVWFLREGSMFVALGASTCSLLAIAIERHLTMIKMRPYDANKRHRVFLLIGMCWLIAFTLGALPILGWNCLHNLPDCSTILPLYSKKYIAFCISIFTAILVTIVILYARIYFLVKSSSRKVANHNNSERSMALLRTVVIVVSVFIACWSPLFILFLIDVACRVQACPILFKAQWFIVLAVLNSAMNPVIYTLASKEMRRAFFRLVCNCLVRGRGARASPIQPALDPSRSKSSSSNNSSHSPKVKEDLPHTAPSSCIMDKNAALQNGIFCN
Chain of Sphingosine 1-phosphate receptor 1 (P21453 whole entry): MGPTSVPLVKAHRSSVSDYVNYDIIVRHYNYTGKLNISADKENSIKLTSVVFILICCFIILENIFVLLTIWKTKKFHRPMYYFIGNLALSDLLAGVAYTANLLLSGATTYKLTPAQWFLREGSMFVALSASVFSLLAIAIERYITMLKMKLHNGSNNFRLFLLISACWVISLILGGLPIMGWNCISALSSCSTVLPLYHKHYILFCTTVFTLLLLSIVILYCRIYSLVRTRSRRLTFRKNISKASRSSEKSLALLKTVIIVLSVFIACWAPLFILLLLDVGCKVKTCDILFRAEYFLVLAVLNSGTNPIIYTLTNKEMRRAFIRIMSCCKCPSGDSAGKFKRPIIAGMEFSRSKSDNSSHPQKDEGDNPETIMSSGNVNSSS
Chain of Intestinal-type alkaline phosphatase (Mus musculus, UniProt P24822) (P24822 whole entry): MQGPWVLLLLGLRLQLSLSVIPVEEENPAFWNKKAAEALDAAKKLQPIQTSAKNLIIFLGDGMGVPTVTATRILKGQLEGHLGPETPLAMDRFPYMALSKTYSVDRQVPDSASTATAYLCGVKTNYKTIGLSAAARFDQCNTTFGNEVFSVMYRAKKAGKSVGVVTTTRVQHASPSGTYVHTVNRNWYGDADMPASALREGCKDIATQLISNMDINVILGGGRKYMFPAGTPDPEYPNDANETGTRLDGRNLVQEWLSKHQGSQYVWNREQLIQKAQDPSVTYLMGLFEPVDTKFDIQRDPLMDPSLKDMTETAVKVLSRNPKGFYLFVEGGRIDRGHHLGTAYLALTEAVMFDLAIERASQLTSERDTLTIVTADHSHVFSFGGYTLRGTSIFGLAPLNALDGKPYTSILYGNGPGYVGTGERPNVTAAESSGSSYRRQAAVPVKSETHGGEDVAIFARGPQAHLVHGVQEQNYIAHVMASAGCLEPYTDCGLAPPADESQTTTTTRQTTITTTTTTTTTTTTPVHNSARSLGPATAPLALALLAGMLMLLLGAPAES
Chain of Sphingosine 1-phosphate receptor 2 (O95136 whole entry): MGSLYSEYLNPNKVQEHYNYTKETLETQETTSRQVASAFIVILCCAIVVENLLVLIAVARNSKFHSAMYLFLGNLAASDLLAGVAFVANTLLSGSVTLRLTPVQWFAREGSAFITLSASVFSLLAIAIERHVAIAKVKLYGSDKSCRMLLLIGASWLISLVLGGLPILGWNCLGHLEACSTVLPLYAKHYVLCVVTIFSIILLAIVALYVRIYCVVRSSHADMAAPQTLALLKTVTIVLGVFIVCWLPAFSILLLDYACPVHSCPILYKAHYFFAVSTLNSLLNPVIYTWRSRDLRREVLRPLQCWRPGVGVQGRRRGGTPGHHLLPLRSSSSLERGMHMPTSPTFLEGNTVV
Chain of Sphingosine 1-phosphate receptor 5 (Q9H228 whole entry): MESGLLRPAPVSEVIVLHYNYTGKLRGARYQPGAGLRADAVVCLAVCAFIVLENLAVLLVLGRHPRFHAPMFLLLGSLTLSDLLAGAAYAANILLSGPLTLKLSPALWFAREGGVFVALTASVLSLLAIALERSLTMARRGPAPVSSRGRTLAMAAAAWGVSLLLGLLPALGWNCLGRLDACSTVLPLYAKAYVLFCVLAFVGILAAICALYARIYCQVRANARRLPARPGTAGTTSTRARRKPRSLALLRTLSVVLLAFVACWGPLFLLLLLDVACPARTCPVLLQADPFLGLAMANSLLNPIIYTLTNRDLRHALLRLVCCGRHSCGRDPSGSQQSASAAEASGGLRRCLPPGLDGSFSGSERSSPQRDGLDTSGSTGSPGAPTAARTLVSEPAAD
Chain of Hexokinase-1 (P19367 whole entry, the tested form may be a part): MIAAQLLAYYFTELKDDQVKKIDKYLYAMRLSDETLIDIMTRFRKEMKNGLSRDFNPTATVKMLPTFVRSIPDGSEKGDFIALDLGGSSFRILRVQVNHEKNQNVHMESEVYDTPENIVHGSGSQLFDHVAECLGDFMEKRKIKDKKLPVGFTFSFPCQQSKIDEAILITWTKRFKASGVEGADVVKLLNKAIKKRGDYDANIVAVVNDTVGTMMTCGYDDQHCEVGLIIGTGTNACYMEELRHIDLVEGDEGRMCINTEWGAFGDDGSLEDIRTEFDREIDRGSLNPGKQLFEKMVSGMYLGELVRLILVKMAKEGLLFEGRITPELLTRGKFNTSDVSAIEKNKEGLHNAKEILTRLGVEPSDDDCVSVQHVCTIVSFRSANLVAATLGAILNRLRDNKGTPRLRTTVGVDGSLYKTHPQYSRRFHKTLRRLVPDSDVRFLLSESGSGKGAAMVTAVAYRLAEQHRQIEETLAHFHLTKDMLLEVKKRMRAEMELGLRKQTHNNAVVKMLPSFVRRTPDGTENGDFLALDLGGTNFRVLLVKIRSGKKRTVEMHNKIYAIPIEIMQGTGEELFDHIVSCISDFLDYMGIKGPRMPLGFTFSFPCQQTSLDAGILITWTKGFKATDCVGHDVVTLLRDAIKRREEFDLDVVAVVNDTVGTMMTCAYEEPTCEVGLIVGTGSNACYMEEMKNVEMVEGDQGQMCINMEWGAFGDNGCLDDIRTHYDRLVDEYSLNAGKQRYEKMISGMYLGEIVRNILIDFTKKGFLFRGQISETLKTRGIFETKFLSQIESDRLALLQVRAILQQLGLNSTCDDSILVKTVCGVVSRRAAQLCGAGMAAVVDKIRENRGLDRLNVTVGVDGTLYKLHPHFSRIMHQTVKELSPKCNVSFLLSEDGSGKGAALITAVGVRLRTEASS
Chain of Tumor necrosis factor (P01375 whole entry): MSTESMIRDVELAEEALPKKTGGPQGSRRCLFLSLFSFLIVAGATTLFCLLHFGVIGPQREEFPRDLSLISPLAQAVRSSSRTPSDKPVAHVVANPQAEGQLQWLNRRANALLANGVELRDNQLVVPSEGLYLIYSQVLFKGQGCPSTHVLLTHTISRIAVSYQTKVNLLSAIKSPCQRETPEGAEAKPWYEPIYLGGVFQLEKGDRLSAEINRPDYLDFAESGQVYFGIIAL
Chain of Scavenger receptor class B member 1 (Q61009 whole entry): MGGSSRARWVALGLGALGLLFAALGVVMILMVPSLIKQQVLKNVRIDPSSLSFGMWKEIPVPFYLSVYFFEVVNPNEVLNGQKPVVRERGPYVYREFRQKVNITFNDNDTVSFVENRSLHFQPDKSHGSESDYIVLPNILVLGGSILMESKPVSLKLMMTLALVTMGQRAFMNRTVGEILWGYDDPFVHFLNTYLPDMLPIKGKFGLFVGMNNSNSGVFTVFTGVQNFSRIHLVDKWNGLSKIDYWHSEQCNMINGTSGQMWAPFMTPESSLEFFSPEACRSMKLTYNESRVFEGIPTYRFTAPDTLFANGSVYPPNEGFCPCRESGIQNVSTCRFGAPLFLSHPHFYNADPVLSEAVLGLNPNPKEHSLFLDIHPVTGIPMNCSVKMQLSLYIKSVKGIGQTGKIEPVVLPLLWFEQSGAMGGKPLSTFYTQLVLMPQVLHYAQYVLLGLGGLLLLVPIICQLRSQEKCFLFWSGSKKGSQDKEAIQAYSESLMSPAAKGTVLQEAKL

With `CCc1cccc(C)c1NC(=O)c1ccc(-c2cc(OC)ccc2OC)o1` the IC50 [1] was > 25 µM (inactive), the IC50 [2] was > 25 µM (inactive) and the IC50 [3] was > 25 µM (inactive). The IC50 [4] was 0.513 µM (active) and the IC50 [5] was > 25 µM (inactive).

With `COC(=O)c1n[nH]c(NC(=O)c2ccccc2Cl)n1` the IC50 (Coagulation factor XII) was 1.05 µM (active).

In the case of `Cc1c(Cl)cccc1N=C(S)NCCC(c1ccccc1)c1ccccc1`, the EC50 [6] is reported as 8.52 µM (active), the IC50 [7] is reported as 42.4 µM (active) and the IC50 [8] is reported as 8.34 µM (active). For the same molecule, the EC50 (Streptococcus) was > 150 µM (not active), the IC50 [9] was 29 µM (active) and the EC50 (Streptokinase A) was 3.76 µM (active).

For `CC(=O)OC1C2(CC3N4C(=O)C5(CO)SSC4(CC31O)C(=O)N5C)OC(C)C(C)(C)C2=O` (configuration not stated), the EC50 (Hexokinase-1) was > 80 µM (inactive), the IC50 [10] was 3.64 µM (active) and the AC50 [11] was 5.61 µM (active). For the same molecule, the AC50 [12] was 1.06 µM (active) and the EC50 (Hexokinase HKDC1) was 0.212 µM (active).

For `O=C(Nc1nc2ccccc2n1Cc1ccc(Cl)cc1)c1ccc(Cl)cc1`, the IC50 [13] was > 20 µM (inactive), the IC50 [14] was > 20 µM (inactive) and the IC50 (Tumor necrosis factor) was > 20 µM (inactive). The IC50 (HEK293) was > 20 µM (inactive).

With `Cc1cc(C)c(NC(=O)C2CCCCC2)c(C)c1` the EC50 [15] was 1.57 µM (active).
